Eight compounds from PubChem BioAssay (NCI) can be followed below.

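1) Cells in 96-well plates. 2) Compound, 48 h, 5 concentrations. 3) Linear interpolation between surrounding doses. 4) Unreached endpoint = highest concentration. Here, GI50 denotes the concentration required for 50% inhibition of growth. TGI: concentration producing complete growth inhibition.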

Some test systems named below: OVCAR-5 ovarian; NCI-H226 lung; MDA-MB-231 breast; SF-295 CNS; SF-539 CNS; OVCAR-3 ovarian; A549 NSCLC; UACC-257 melanoma; HOP-92 NSCLC; EKVX NSCLC.
Holding throughout (assay): NCI-60 cell line screen, 48 h

On to `C/C(=N\Nc1ccc2ccccc2n1)c1ccccn1`, for which the GI50 in the assay on OVCAR-5 ovarian was 0.0832 µM; in the assay with NCI-H226 lung it was 0.134 µM; in the assay on MDA-MB-231 breast it was under 0.042 µM; with SF-539 CNS, 0.0768 µM; with OVCAR-3 ovarian, under 0.0192 µM; in the assay with A549 NSCLC, 0.0841 µM. For the same compound, the GI50 in the assay with UACC-257 melanoma was 0.0579 µM. Moreover, the TGI turned out to be 14.5 µM with OVCAR-5 ovarian; 2.12 µM in the assay on NCI-H226 lung; 4.06 µM with MDA-MB-231 breast; 0.636 µM with SF-295 CNS; 0.487 µM in the assay with SF-539 CNS; 4.24 µM in the assay with OVCAR-3 ovarian. The TGI in the assay with A549 NSCLC turned out to be 11.1 µM; with UACC-257 melanoma it was 0.326 µM.

For `O=C(/C(=C/c1ccc([N+](=O)[O-])cc1)c1ccccc1)c1ccccc1`, the GI50 is 4.91 µM in the assay with OVCAR-5 ovarian; 2.22 µM in the assay on HOP-92 NSCLC; 3.16 µM with MDA-MB-231 breast; 3.56 µM with SF-295 CNS; 2.36 µM in the assay on OVCAR-3 ovarian; 3.8 µM in the assay with A549 NSCLC. For the same compound, the TGI in the assay with OVCAR-5 ovarian was over 100 µM; in the assay on HOP-92 NSCLC it was 6.98 µM; in the assay with MDA-MB-231 breast it was over 100 µM; in the assay on SF-295 CNS, over 100 µM; with OVCAR-3 ovarian, 5.64 µM; in the assay on A549 NSCLC, over 100 µM.

In the case of `CCN1CCC(CCOC)(CN2c3ccccc3Sc3ccc(Cl)cc32)C1` (stereo not given), the GI50 in the assay with OVCAR-5 ovarian was 1.83 µM; in the assay with NCI-H226 lung it was 1.92 µM; with MDA-MB-231 breast, 1.86 µM; in the assay on SF-295 CNS it was 1.73 µM; with SF-539 CNS, 1.76 µM; in the assay with OVCAR-3 ovarian, 1.88 µM. The figures for the GI50 in the assay on A549 NSCLC, in the assay on EKVX NSCLC and in the assay on UACC-257 melanoma were 1.9 µM, 2.04 µM and 1.93 µM, respectively. The TGI worked out at 3.88 µM with OVCAR-5 ovarian; 4.67 µM in the assay with NCI-H226 lung; 3.67 µM in the assay on MDA-MB-231 breast; 3.39 µM in the assay with SF-295 CNS; 3.51 µM in the assay with SF-539 CNS; 4.1 µM in the assay on OVCAR-3 ovarian. Besides, the TGI was determined as 3.56 µM with A549 NSCLC, 5.91 µM in the assay with EKVX NSCLC and 3.87 µM with UACC-257 melanoma.

As for `O=C(C1CCCCC1)[C@@H]1[C@]2(C(=O)NC3CCCCC32)[C@@H]2CCCN2[C@@]12C(=O)NC1CCC(Cl)CC12` (stereo not given in full), the GI50 in the assay on OVCAR-5 ovarian is 149 µM; in the assay with NCI-H226 lung, 179 µM; in the assay on MDA-MB-231 breast, 70.3 µM; in the assay on SF-295 CNS, 149 µM; in the assay on SF-539 CNS, 121 µM; with OVCAR-3 ovarian, 78.2 µM. For the same compound, the results for the GI50 in the assay with A549 NSCLC, with EKVX NSCLC and in the assay on UACC-257 melanoma were 135 µM, 69.9 µM and 135 µM, respectively. The TGI in the assay with OVCAR-5 ovarian is 284 µM; with NCI-H226 lung, 411 µM; in the assay on MDA-MB-231 breast, 224 µM; in the assay with SF-295 CNS, 299 µM; in the assay on SF-539 CNS it was 255 µM; in the assay with OVCAR-3 ovarian, 210 µM. Further, the values for the TGI with A549 NSCLC, in the assay on EKVX NSCLC and with UACC-257 melanoma were 379 µM, 217 µM and 288 µM, respectively.

With `O=C(O)C/C=C/CC(=O)O`, the TGI in the assay with OVCAR-5 ovarian, with NCI-H226 lung, in the assay on MDA-MB-231 breast, with SF-295 CNS, in the assay with OVCAR-3 ovarian and in the assay with A549 NSCLC was over 100 µM each time. Moreover, the TGI in the assay with EKVX NSCLC and with UACC-257 melanoma was over 100 µM in each case.

On to `O=c1[nH]c2ccccc2nc1-c1c[nH]c2ccccc12`, for which the GI50 with OVCAR-5 ovarian is over 100 µM; in the assay with MDA-MB-231 breast it was 7.38 µM; in the assay with SF-295 CNS it was 68.2 µM; in the assay on SF-539 CNS, over 100 µM; in the assay on OVCAR-3 ovarian, 9.57 µM; with A549 NSCLC it was over 100 µM. In addition, the GI50 is 18.8 µM with EKVX NSCLC and over 100 µM in the assay on UACC-257 melanoma. Further, the TGI with OVCAR-5 ovarian, in the assay on MDA-MB-231 breast, with SF-295 CNS, with SF-539 CNS, with OVCAR-3 ovarian and in the assay on A549 NSCLC was over 100 µM each time. In addition, the TGI in the assay with EKVX NSCLC and with UACC-257 melanoma was over 100 µM throughout.

On to `Cn1c2c(cc(S(=O)(=O)c3ccccc3)c1=O)CCc1c-2cnn1-c1ccc(Cl)cc1`, for which the GI50 is 3.37 µM with OVCAR-5 ovarian; 2.22 µM in the assay on NCI-H226 lung; 2.24 µM in the assay with MDA-MB-231 breast; 2.09 µM in the assay on SF-295 CNS; 1.87 µM in the assay with SF-539 CNS; 2.45 µM in the assay on OVCAR-3 ovarian. Also, the GI50 in the assay with EKVX NSCLC is 3.62 µM. Moreover, the TGI was over 100 µM in the assay on OVCAR-5 ovarian; 4.94 µM in the assay on NCI-H226 lung; 5.27 µM in the assay on MDA-MB-231 breast; 5.04 µM in the assay with SF-295 CNS; 3.4 µM in the assay with SF-539 CNS; 5.67 µM with OVCAR-3 ovarian. This compound displayed a TGI in the assay with EKVX NSCLC of 31 µM.

Take `COc1ccc(C(OCC2OC(n3ccc(NC(=O)c4ccccc4)nc3=O)C(O)C2O)(c2ccccc2)c2ccccc2)cc1` (stereo not given): the TGI in the assay on OVCAR-5 ovarian worked out at 3.79 µM; with NCI-H226 lung it was 7.87 µM; with MDA-MB-231 breast, 4.05 µM; with SF-295 CNS, 3.49 µM; in the assay with SF-539 CNS, 3.94 µM; with OVCAR-3 ovarian, 3.15 µM. For the same compound, the TGI in the assay on A549 NSCLC worked out at 14.9 µM; in the assay with EKVX NSCLC, 6.1 µM; in the assay with UACC-257 melanoma, 21.1 µM.
